Source: US20090017006A1, “USE OF A COMPOUND FOR ENHANCING THE EXPRESSION OF MEMBRANE PROTEINS ON THE CELL SURFACE” (BIODEVELOPS PHARMA ENTWICKLUNG GMBH, priority 2005, published 2009)
Entries after “also recorded” stand apart in the source; their conditions may differ. Residues, ends and D or L forms follow the SMILES beside them. *: point of attachment. Cbz = O=C(OCc1ccccc1)*

Assays:
Type in all cases: cell-based
CFTR-ΔF508 [1] = assay: FACS monitoring of expression of GFP-tagged CFTR-ΔF508 in HEK293 cells; settings: for CFTR-ΔF508-associated fluorescence (expression level) versus control: 24 h
Procedure: (§1) Cultured HEK293 cells were transfected with plasmids encoding CFTR or CFTR-ΔF508 (GFP-tagged) and/or co-transfected with plasmids encoding USP4 (or an appropriate control plasmid) by using the CaPO4-precipitation method. Sixteen hours after transfection the cells were treated with varying concentrations of compounds. At a specific time point (here 24 h) the cells are trypsinized, fixed in ethanol, permeabilized and stained with propidium iodide (PI). The stained cells are subjected to FACS analysis
Because CFTR is tagged with a fluorescent protein, expression in individual cells can be monitored by fluorescence activated cell sorting (FACS). By contrast with fluorescence microscopy (where individual cells are picked), FACS allows to survey the entire cell population. In addition, FACS has the advantage that it allows for reasonable sample throughput; finally, automation and scale-up is readily possible.
The original data set is shown on the right hand side of the figures, respectively (see e.g. FIG. 2c): the x-axis is the propidium iodide fluorescence (note that the scale is linear). The y-axis is the GFP-fluorescence (=fluorescence associated with CFTR; note that the scale is logarithmic) and each dot corresponds to a cell. The quadrangle delineates the cells that express CFTR.

HEK293 cells = assay: FACS propidium iodide staining: cell cycle distribution / apoptosis of transfected HEK293 cells
Procedure: as §1
Transiently transfected HE 293 cells were fixed in ethanol 24 h after transfection as mentioned above and then stained with propidium iodide to label the DNA: the rationale was to examine the distribution of cells in the cell cycle (=to see if the expression of CFTR or of CFTR-ΔF508 was toxic or if the compounds employed killed the cells/drove them into apoptosis).
One can plot the cell counts against the propidium iodide fluorescence of the transfected cells (such as shown in, for example, FIG. 2b): This gives a peak of cells (denoted by M1) that have a 2n content of DNA (G1-cells), a shoulder of cells that have a DNA content of larger than 2n (denoted by M3 and representing cells that are in S-phase) and a second peak of cells that have a DNA content of 4n (denoted by M2 and representing cells in G2 and M-phase).

CFTR-ΔF508 [2] = assay: Immunoblot for GFP-tagged CFTR-ΔF508 expressed in HEK293 cells (endoglycosidase H treated extracts); design: accumulation of CFTR-ΔF508 (intensity of staining compared to control lane 4): unit of the concentration uncertain; settings: for accumulation of CFTR-ΔF508 (intensity of staining compared to control lane 4): treated overnight (16 h)
Procedure: HEK293 cells (1*10^6 cells) were transfected with plasmids encoding CFTR or CFTR-ΔF508 (GFP-tagged) and/or co-transfected with effector plasmids. After 16 h, the cells were treated with the varying concentrations of compounds. After 24 h, the cells were harvested in phosphate-buffered saline, lysed by a freeze-thaw cycle and homogenized by sonication. The homogenate was resuspended in reducing Laemmli sample buffer (50 mM Tris.Hcl, pH 6.8, 20% glycerol, 0.1% bromophenol blue, 2% SDS and 20 mM dithiothreitol); aliquots (15% of the original culture) were resolved on a denaturing polyacrylamide gel (monomer concentration in the stacking gel and in the running gel 4 and 8% respectively) and electrophoretically transferred to a nitrocellulose membrane. Immunodetection was done with an antiserum directed against GFP as the primary antibody and an anti-rabbit IgG coupled to horseradish peroxidase as the secondary antibody.
In a first example, Membranes from transfected cells were prepared and immunoblotted for GFP-tagged CFTR or CFTR-ΔF508, respectively (by using an antibody directed against the fluorescent protein).
The membrane extract was also treated endoglycosidase H. The rationale for this experiment is as follows: membrane proteins are core glycosylated in the endoplasmatic reticulum. Core glycosylation is sensitive to endoglycosidase H. If the protein has reached the Golgi (and then trafficked to the plasma membrane), it acquires additional sugar moieties and becomes resistant to endoglycosidase H. It is evident from lane 3 in FIG. 1 that endoglycosidase H treatment reduces the apparent size of CFTR; thus, the bulk of the protein is still in the ER. The following lanes examine the expression of CFTR-ΔF508 (all extracts were treated with endoglycosidase H): lane 4 is the control, that is cells expressing CFTR-ΔF508; in lanes 5, 6, 7 and 8 cells expressing CFTR-ΔF508 were treated overnight (i.e. for 16 h) with 100 nM MG132, […], […] and 100 nM bortezomib, respectively.

[3] = cells cotransfected with plasmid driving expression of USP4

## CC(C)C[C@H](NC(=O)[C@H](Cc1ccccc1)NC(=O)c1cnccn1)B(O)O [Bortezomib, N-(2-pyrazine)carbonyl-L-phenylalanine-L-leucine-boronic acid]
CFTR-ΔF508 [1]; 10 nM, HEK293 cells
  CFTR-ΔF508-associated fluorescence (expression level) versus control: expression of CFTR is increased; also recorded: substantially increases the level of CFTR-ΔF508
CFTR-ΔF508 [1]; 100 nM, HEK293 cells
  CFTR-ΔF508-associated fluorescence (expression level) versus control: expression of CFTR is increased
HEK293 cells; 10 nM, HEK293 cells
  cell cycle distribution of CFTR-ΔF508 expressing cells versus control: essentially the same as the one shown in control cells
HEK293 cells; 100 nM, HEK293 cells
  number of cells with low propidium iodide fluorescence (apoptotic cells): number of cells with low propidium iodide fluorescence increases
  peak of the G1-cells (M1) in cell cycle distribution: greatly reduced
HEK293 cells; 1 μM, HEK293 cells
  number of cells with low propidium iodide fluorescence (apoptotic cells): number of cells with low propidium iodide fluorescence increases
  peak of the G1-cells (M1) in cell cycle distribution: greatly reduced
CFTR-ΔF508 [2]; 100 nM compared with 1 μM, 16 h
  relative effectiveness in accumulation of CFTR-ΔF508, 100 nM versus 1 μM: more effective than 1 μM bortezomib
CFTR-ΔF508 [2]; 100 nM
  accumulation of CFTR-ΔF508 (intensity of staining compared to control lane 4): led to the accumulation of CFTR-ΔF508
CFTR-ΔF508 [2]; 1 (unit uncertain)
  accumulation of CFTR-ΔF508 (intensity of staining compared to control lane 4): led to the accumulation of CFTR-ΔF508

## CC(C)C[C@@H](C=O)NC(=O)[C@H](CC(C)C)NC(=O)[C@H](CC(C)C)NC(=O)OCc1ccccc1 [MG132] (Cbz-Leu-Leu-Leu-aldehyde)
CFTR-ΔF508 [1]; 1 μg, HEK293 cells
  CFTR-ΔF508-expression: enhances CFTR-ΔF508-expression
HEK293 cells; 1 μg, HEK293 cells
  apoptotic effect: pronounced apoptotic effect

## O=C1N[C@@H]2[C@@H](O)[C@@H](O)[C@H](O)[C@@H](CO)N2C1=O [kifunensine]
CFTR-ΔF508 [2]; 20 (unit uncertain)
  accumulation of CFTR-ΔF508 (intensity of staining compared to control lane 4): led to the accumulation of CFTR-ΔF508

## USP-4: deubiquitinating enzyme (ubiquitin specific protease), co-expressed in cells from a transfected plasmid
CFTR-ΔF508 [1]; [3]
  CFTR-ΔF508-associated fluorescence versus control: CFTR-ΔF508-associated fluorescence increases
HEK293 cells; [3]
  toxicity / apoptosis (cell cycle distribution, sub-2n fraction): not toxic and does not cause apoptosis
